Test results: patent US20060199978A1, “Compounds having serotonin 5-ht17 receptor antagonist activity and muscarinic m4 receptor agonist activity and their use in the treatment of psychotic disorders” (priority 2003, published 2006)
Read-outs that look alike come from different tables or passages of the source.

Legend:
[1] = test system: amphetamine-induced hyper-activity in rats; assay: amphetamine-induced hyperactivity in rats; type: in vivo, rat; details: for Line Crossings (mean ± S.E.): amphetamine control 111.6 ± 6.4
Description: Male Long Evans rats (190-280 g) in each group of five were used. Amphetamine (1.0 mg/kg i.p.) was dissolved in saline, and test compounds were dissolved or suspended in 0.5% hydroxypropylmethylcellulose (HPMC) solution. All the test compounds were injected intraperitoneally in a volume of 0.1 ml/100 g, and control rats were treated with the respective vehicle. The plastic open-field box (40×40×40(H) cm) was used to measure the locomotor activity of rats. The locomotor activity was expressed as the number of line crossings marked on the floor of the test box at 20 cm square. Individual rats were placed in the test box just after the injection of amphetamine, and were allowed to habituate there for 10 min. The line crossings were counted over 15 min thereafter. The behavioural observation was conducted on two rats simultaneously using two test boxes. Test compounds were pretreated 30 min before the injection of amphetamine.

[2] = target: T1, M4 muscarinic receptors (N1E-115 cells) (Mus musculus, UniProt P32211); assay: Homogenate assay for c-AMP production (PACAP-stimulated); type: biochemical; details: N1E-115 homogenate; for reduction of c-AMP levels (agonist activity): PACAP 0.1 nM stimulation
T1 construct: endogenous in cells; host or cells: mouse N1E-115 cells (homogenate)
T1 sequence (P32211 1-479): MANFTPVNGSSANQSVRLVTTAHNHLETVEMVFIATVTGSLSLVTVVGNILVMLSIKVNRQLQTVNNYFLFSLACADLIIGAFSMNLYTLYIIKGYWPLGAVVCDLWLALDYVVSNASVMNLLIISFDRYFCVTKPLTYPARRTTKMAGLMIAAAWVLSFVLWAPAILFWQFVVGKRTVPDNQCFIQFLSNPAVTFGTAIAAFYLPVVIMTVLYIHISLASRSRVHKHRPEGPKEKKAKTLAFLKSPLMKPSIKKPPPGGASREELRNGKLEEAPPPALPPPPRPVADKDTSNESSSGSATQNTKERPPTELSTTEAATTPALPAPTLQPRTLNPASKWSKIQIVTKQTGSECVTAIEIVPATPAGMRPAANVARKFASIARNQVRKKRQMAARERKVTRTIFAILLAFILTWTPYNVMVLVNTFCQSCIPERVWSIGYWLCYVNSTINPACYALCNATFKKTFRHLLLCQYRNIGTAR
Description: N1E-115 cells were harvested by scraping and placed in Ribolyser tubes on dry ice. Ice cold buffer (0.5 ml) containing 50 mM Tris HCl, 0.4 mM EDTA and 0.4 mM EGTA (pH 7.4) was added to the tubes. The tubes were then placed in a Ribolyser and shaken at 4 g for 20 sec. The homogenate was then transferred to eppendorf tubes and was then centrifuged at 19,700 g for 30 min at 4° C. The pellet was resuspended in ice cold 50 mM Tris HCl (pH7.4) at a concentration of 50 mg ml^−1 wet weight of tissue. The homogenate was stored in aliquots at −70° C. Protein concentrations of the homogenates were determined using a Bio-Rad protein determination kit. The assay was carried out in a final assay volume of 120 μl containing 50 mM Tris HCl (pH7.4), 5 mM MgCl2 50 μM GTP, 200 μM ATP, 120 μM sucrose, 0.4 mM EDTA, 0.4 mM EGTA, 200 μM ascorbic acid, 20 μM papaverine, 200 μM rolipram, 10 μM vinpocetine, 10 mM phosphocreatinine, 0.4 mM DTT, 100 nM WAY 100635, 1 μM propranolol, 36 μg bacitracin, 4.8 U creatine phosphokinase, 3.6 KIU aprotinin. Homogenate (1 mgml^−1) was preincubated with the test compound in ice cold assay buffer for 10 min. PACAP (0.1 nM) was then added to the tubes. The tubes were then incubated at 30° C. for 20 min and then at 99° C. for 5 min. Levels of c-AMP in the tubes were measured using the Amersham Pharmacia Biotech Biotrak c-AMP enzymeimmunoassay kit.

human 5-HT7 receptors = target: T2, human 5-HT7 receptors (Homo sapiens, UniProt P34969); assay: 5-HT7 binding assay (3H-5CT); details: human 5-HT7 membrane, 3H-5CT 0.5 nM
T2 construct: purchased Euroscreen
Description: The compounds of the present invention were screened for binding affinity using membranes containing stably expressed human M4 muscarinic receptors or human 5-HT7 receptors.
Total volume 200 μl/well. Membrane concentration—human 5-HT7 membrane (purchased from Euroscreen)—6 μg/ml; ^3H-5CT 0.5 nM; Sample conc. 10 nM-300 μM; 8OH-DPAT Displacement Curve—1 nM-3 μM. The plates are incubated at 20° C. for 120 minutes in the dark to avoid any photo degradation. Membranes are harvested by rapid filtration using a vacuum manifold under 700 mbar pressure. The plates are washed 3 times with 200 ul/well of ice-cold wash buffer. Plates are dried at 40° C. for 1 hour (Higher CPMs are obtained when the filters are dried) 100 μl scintillation fluid is added to each well and cpm determined using a Microbeta scintillation counter.

[3] = target: T3, human M4 muscarinic receptors (Homo sapiens, UniProt P08173); assay: M4 binding assay (3H-NMS); details: human M4 membranes, 3H-NMS 0.25 nM
T3 construct: purchased NEN
T3 sequence (P08173 1-479): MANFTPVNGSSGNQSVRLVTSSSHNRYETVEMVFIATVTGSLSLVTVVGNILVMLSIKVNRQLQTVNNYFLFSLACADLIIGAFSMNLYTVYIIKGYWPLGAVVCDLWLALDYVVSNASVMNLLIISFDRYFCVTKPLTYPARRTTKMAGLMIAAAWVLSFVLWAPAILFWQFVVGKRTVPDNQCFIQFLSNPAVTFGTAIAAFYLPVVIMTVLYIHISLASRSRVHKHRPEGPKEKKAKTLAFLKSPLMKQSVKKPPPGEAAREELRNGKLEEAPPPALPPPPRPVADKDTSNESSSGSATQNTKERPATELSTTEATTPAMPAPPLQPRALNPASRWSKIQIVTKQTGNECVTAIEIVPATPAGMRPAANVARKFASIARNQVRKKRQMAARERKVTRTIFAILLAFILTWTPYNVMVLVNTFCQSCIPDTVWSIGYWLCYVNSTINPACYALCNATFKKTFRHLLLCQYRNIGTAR
Description: Total volume 200 μl/well. Membrane concentration—human M4 membranes (NEN)—8 μg/ml; ^3H-NMS 0.25 nM; Sample conc. 10 nM-300 μM; Atropine Displacement Curve—0.3 nM-1 μM.
The plates are incubated at 20° C. for 60 minutes in the dark to avoid any photo degradation. Membranes are harvested by rapid filtration using a vacuum manifold under 700 mbar pressure. The plates are washed 3 times with 200 ul per well of ice-cold wash buffer. Plates are dried at 40° C. for 1 hour, 100 μl scintillation fluid is added to each well and cpm determined using a Microbeta scintillation counter.

human D2 membrane = target: T4, human D2 membrane (Homo sapiens, UniProt P14416); assay: D2 binding assay (3H-spiperone); details: 3H-spiperone 0.5 nM
T4 construct: purchased Euroscreen
Description: Total volume 200 μl/well. Membrane concentration—human D2 membrane (purchased from Euroscreen)—10 μg/ml; ^3H-spiperone 0.5 nM; Sample conc. 10 nM-300 μM; Haloperidol Displacement Curve—1 nM-10 μM. The plates are incubated at 25° C. for 60 minutes in the dark to avoid any photo degradation.
Membranes are harvested by rapid filtration using a vacuum manifold under 700 mbar pressure. The plates are washed 3 times with 200 ul/well of ice-cold wash buffer. Plates are dried at 40° C. for 1 hour (Higher CPMs are obtained when the filters are dried). 100 μl scintillation fluid is added to each well and cpm determined using a Microbeta scintillation counter.

[4] = test system: apomorphine-induced deficits in PPI in rats; assay: apomorphine-induced deficits in prepulse inhibition (PPI); type: in vivo, rat; details: s.c. 25 minutes prior to apomorphine 0.5 mg/kg s.c.; Wistar rats
Description: Male Wistar rats (Japan SLC Inc., Shizuoka, Japan) were used. They were housed in a light, humidity and temperature controlled environment maintained on a 12-hour/12-hour light/dark schedule (light on at 7 am) with food and water provided ad libitum. Four startle chambers (SR-LAB, San Diego Instruments, San Diego, Calif.) were placed in a sound-attenuated room. Each chamber consisted of Plexiglas cylinder 8.8 cm in diameter resting on a 12.7×20.3 cm Plexiglas stand. Acoustic stimuli and background noise were presented via a Supertweeter mounted 24 cm above the Plexiglas cylinder. Startle magnitude was detected and recorded by a microcomputer and interface assembly (San Diego Instruments) as transduced cylinder movement via a piezoelectric device mounted below the Plexiglas stand.
One day before drug testing, all rats were exposed to a “matching” startle session. Data from this session were used to assign rats to balanced groups according to their startle responses. […] Each session was approximately 20 minutes and consisted of 5 minutes of 70-dB background followed by five trial types, PULSE ALONE trial: a 120-dB 50 ms noise burst, PREPULSE trials which consisted of 20 ms noise bursts 3, 5, 10 dB above 70-dB background noise followed 100 ms later by a 120-dB 40 ms noise burst, NOSTIM trial: 100 ms of response was recorded during periods where no stimulus was presented. […]

chronic PCP-treated rats [5] = assay: LCGU (2-DG) in chronic PCP rat model
chronic PCP-treated rats [6] = details: cited from earlier work

T4 sequence (P14416 whole entry): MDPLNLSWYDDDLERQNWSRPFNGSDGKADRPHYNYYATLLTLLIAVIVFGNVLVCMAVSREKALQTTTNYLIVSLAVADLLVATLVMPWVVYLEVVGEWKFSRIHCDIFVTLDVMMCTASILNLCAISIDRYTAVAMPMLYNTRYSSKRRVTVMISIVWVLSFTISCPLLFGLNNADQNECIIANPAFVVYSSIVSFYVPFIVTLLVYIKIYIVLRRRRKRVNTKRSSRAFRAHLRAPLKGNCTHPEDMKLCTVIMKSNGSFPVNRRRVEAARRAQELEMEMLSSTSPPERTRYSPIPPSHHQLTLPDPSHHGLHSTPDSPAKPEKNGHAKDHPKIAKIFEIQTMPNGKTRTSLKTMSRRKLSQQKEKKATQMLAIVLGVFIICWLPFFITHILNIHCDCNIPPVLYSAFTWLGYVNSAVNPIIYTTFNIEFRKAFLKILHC
T2 sequence (P34969 whole entry): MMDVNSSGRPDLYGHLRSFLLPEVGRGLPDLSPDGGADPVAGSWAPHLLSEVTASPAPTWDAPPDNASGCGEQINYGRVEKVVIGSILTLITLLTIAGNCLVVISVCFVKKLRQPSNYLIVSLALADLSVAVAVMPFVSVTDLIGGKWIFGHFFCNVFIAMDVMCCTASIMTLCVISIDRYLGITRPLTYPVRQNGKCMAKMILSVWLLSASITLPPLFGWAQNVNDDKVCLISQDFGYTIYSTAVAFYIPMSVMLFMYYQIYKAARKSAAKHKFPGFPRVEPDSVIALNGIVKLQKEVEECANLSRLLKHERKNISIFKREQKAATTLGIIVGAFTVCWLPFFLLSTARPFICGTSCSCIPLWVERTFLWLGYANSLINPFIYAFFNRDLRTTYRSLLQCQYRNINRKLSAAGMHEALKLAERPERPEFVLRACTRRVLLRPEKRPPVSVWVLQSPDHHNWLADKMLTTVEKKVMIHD

COc1cc2c(cc1OC)CN(/C=N/c1ccc3c(c1)C(O)CC3)CC2 (stereo not shown) [Compound 32]
Line Crossings (mean ± S.E.) ([1]; dose 1 mg/kg, i.p.): 98.8 ± 7.3 | Line Crossings (mean ± S.E.) ([1]; dose 3 mg/kg, i.p.): 89.6 ± 13.3 | Line Crossings (mean ± S.E.) ([1]; dose 10 mg/kg, i.p.): 45.6 ± 8.3 | effect on amphetamine-induced hyperactivity ([1]; rats, i.p., 30 min before amphetamine): suppressed the hyperactivity in a dose-dependent manner | ED50, suppression of amphetamine-induced hyperactivity ([1]; rats, amphetamine 1.0 mg/kg i.p., 95% confidence limits, estimated): 8.1 (95% confidence limits; 4.4-15) mg/kg, i.p. | reduction of c-AMP levels (agonist activity) [2]: able to reduce cAMP levels | Ki (human 5-HT7 receptors): 0.4 µM | Ki [3]: 0.32 µM | Ki (human D2 membrane): > 300 µM

OC1CCc2ccc(/N=C/N3CCc4ccccc4C3)cc21 (stereo not shown) [Compound 34, 6-[(3,4-dihydro-1H-isoquinolin-2-ylmethylene)-amino]-indan-1-ol]
Ki (human 5-HT7 receptors): 2.7 µM | Ki [3]: 2.8 µM | Ki (human D2 membrane): > 300 µM

CCCSc1nsnc1[C@H]1CN2CCC[C@H]1C2 [PTAC, (5R,6R)6-(3-propylthio-1,2,5-thiadiazol-4-yl)-1-azabicyclo(3.2.1)octane]
effect on apomorphine-induced disruption of PPI [4]: Neither PTAC nor SB25871 alone affect the disruption induced by apomorphine

Cc1cccc(S(=O)(=O)N2CCC[C@@H]2CCN2CCC(C)CC2)c1 [SB258741, R-(+)-1-(toluene-3-sulfonyl)-2-[2-(4-methylpiperidin-1-yl)ethyl]pyrrolidine]
effect on apomorphine-induced disruption of PPI [4]: Neither PTAC nor SB25871 alone affect the disruption induced by apomorphine

CN1[C@@H]2CC[C@H]1C[C@@H](OC(=O)C(CO)c1ccccc1)C2 (stereo partly shown) [atropine]
blockade of the cAMP-reducing effect of Compound 32 [2]: the effect was blocked

O=C(CCCN1CCC(O)(c2ccc(Cl)cc2)CC1)c1ccc(F)cc1 [haloperidol]
effect on PCP-induced metabolic hypofunction (LCGU) (chronic PCP-treated rats [5]; prelimbic region of the prefrontal cortex, chronic treatment): not by haloperidol or clozapine | effect on PCP-reduced local glucose utilisation (chronic PCP-treated rats [5]; ventral lateral lemniscus, chronic treatment (FIG. 4)): only partially restores the hypofunction | effect on PCP-reduced local glucose utilisation (chronic PCP-treated rats [5]; ventral reticular thalamic nucleus, chronic treatment (FIG. 3)): not by haloperidol or clozapine | effect on PCP-induced hypofunction (chronic PCP-treated rats [6]; auditory structures, reported previously (Cochran et al., 2003)): reversed the PCP-induced hypofunction | effect on PCP-induced metabolic hypofunction (chronic PCP-treated rats [6]; prelimbic region of the prefrontal cortex, shown previously (Cochran et al., 2003)): failed to reverse | effect on PCP-induced hypofunction (chronic PCP-treated rats [6]; reticular nucleus of the thalamus, shown previously (Cochran et al., 2003)): failed to reverse

O=C1CCCN1CC#CCN1CCCC1 [oxotremorine]
reduction of c-AMP levels (agonist activity) [2]: showed the ability to reduce c-AMP levels
